Experiments:
[1] = tested on: vasoconstriction, rebound hyperemia, intraocular pressure, corneal endothelial cell pump; conditions: FIG. 2
[2] = tested on: red eye condition; experiment: Red eye study, brimonidine vs VISINE Original, cumulative red scores (Example 4); assay type: in vivo, human; conditions: three week scores, brimonidine at […]
Procedure: The patients were assigned “cumulative red scores” , prior to each administration (as baseline) and then 10 min after each dose, by dividing the bulbar conjunctiva into six sectors, each scored with a grade 1-3 score and the total cumulative score.

[3] = tested on: postoperative hyperemia and conjunctival hemorrhage; experiment: Lasik prophylaxis (Example 2); conditions: brimonidine 0.02%
[4] = tested on: chronic red eyes; experiment: Chronic red eyes, eld brimonidine vs Naphcon-A, patient satisfaction assessment (Example 5); assay type: in vivo, human; conditions: brimonidine at […], drops twice a day for three to five weeks, seven patients
Procedure: The treatment was through drops twice a day for three to five weeks. At the end, patient satisfaction assessment was conducted.

[5] = tested on: rebound hyperemia; experiment: Reversal of pre-induced rebound hyperemia (FIGS. 5A-C); assay type: in vivo, human; conditions: right eye, brimonidine at […] after VISINE Original
Excerpt: FIG. 5A is a baseline visual appearance of two eyes of a patient with an ocular condition.

[6] = tested on: eyes of a patient with an ocular condition; conditions: brimonidine 0.01-[…] (left eye) compared with tetrahydrozoline 0.05%, oxymetazoline […], naphazoline […] (right eye); baseline redness 4/4
Excerpt: In an average clinical situation, baseline redness is at 1-1.5/4.

## Brc1c(N=C2NCCN2)ccc2nccnc12.O=C(O)C(O)C(O)C(=O)O [brimonidine, 5-bromo-6-(2-imidazolidinylideneamino)quinoxaline L-tartrate]
[1]
  concentration at which intraocular pressure reduction and corneal endothelial cell pump inhibition are just at their maximum: about 0.09%
[1]; vasoconstrictive effect remains largely unchanged
  concentration below which intraocular pressure reduction and endothelial cell pump inhibition drop off exponentially: below 0.08%
[2]
  average redness count after administration (went down to): 1.6
[3]
  cosmetic appearance from day 1 vs. no vasoconstrictor and vs. Naphcon-A: much improved
[3]; group expanded to over 500 eyes
  eye appearance after Lasik: white quiet eye is noted in most patients
[4]
  patient-reported redness: All patients reported reduced redness
[5]
  reversal of induced rebound hyperemia: reversing the VISINE Original® induced rebound hyperemia
[6]
  scleral whitening brightening effects: significant scleral whitening brightening effects

Source: patent US8293742B2, “Preferential vasoconstriction compositions and methods of use” (Alpha Synergy Development, Inc., priority 2008, dated 2012)
